The test system of one assay is pERK in PSN1 cells. Kind of assay: Inhibition of KRas phosphorylation of ERK (Cisbio HTRF pERK assay). The conditions noted are these: Homo sapiens, PSN1, 3 h, read-out: Inhibition (HTRF IC50) of KRas-mediated Phosphorylation of ERK, PSN1.
A further assay deals with pERK in MKN1 cells. The description is as above. Conditions: Homo sapiens, MKN-1, 3 h, read-out: Inhibition (HTRF IC50) of KRas-mediated Phosphorylation of ERK, MKN1. (TR-FRET usually uses a lanthanide donor and a delayed reading to cut background.)
The target of a further assay is KRas G12R (Homo sapiens, UniProt P01116, G12R). Kind of assay: biochemical.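 Further: TR-FRET displacement assay of compound binding to KRas, read after one hour at room temperature, potency from a four-parameter fit of percent-of-control values.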
The target in another assay is KRas G12V (Homo sapiens, UniProt P01116, G12V). Kind of assay: biochemical.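 Further: KRas binding measured by TR-FRET displacement at room temperature, IC50 fitted from percent of control values.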
A further assay has as its target KRas G12D (Homo sapiens, UniProt P01116, G12D). Kind of assay: biochemical.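 Further: TR-FRET displacement binding assay on KRas, read after a one-hour incubation at room temperature, IC50 fitted from percent-of-control values.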
In a further assay the test system is pERK in H727 cells. Kind of assay: Inhibition of KRas phosphorylation of ERK (Cisbio HTRF pERK assay). The conditions noted are these: Homo sapiens, NCI-H727, read-out: Inhibition (HTRF IC50) of KRas-mediated Phosphorylation of ERK, H727.
For a further assay, the system named is pERK in ASPC1 cells. The description is as above. The conditions noted are these: Homo sapiens, ASPC1, read-out: Inhibition (HTRF IC50) of KRas-mediated Phosphorylation of ERK, AsPC-1.

KRas G12R, sequence (P01116 1-169 isoform P01116-2 G12R): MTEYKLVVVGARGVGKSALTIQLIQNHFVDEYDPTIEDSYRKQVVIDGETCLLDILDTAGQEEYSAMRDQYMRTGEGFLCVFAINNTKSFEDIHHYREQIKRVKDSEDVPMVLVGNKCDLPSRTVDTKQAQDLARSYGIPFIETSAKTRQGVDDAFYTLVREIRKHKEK
KRas G12V, sequence (P01116 1-169 isoform P01116-2 G12V): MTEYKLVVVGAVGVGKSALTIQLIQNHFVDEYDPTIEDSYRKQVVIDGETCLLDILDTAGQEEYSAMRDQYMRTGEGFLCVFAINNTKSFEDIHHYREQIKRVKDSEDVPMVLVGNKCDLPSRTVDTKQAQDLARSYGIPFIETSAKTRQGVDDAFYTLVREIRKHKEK
KRas G12D, sequence (P01116 1-169 isoform P01116-2 G12D): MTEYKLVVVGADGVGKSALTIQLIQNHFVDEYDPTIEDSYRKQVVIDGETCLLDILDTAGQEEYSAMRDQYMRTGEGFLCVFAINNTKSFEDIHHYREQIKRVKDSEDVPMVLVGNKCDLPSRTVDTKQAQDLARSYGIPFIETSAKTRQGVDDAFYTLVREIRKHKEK

For `CCc1c(F)ccc2cc(O)cc(-c3ncc4c(N5C[C@@H]6C(=O)NNC(=O)[C@@H]6C5)nc(OC[C@@]56CCCN5C[C@H](F)C6)nc4c3F)c12` [Example 363, (4aR,7aS)-6-(7-(8-ethyl-7-fluoro-3-hydroxynaphthalen-1-yl)-8-fluoro-2-(((2R,7aS)-2-fluorotetrahydro-1H-pyrrolizin-7a(5H)-yl)methoxy)pyrido[4,3-d]pyrimidin-4-yl)hexahydro-1H-pyrrolo[3,4-d]pyridazine-1,4(4aH)-dione], the IC50 with pERK in PSN1 cells is at least 10 µM; in the assay on pERK in MKN1 cells it was at least 10000 nM; on KRas G12R, 10 nM; at KRas G12V it was 57 nM; on KRas G12D, 201 nM; in the assay with pERK in H727 cells, at least 10000 nM. Also, in the assay on pERK in ASPC1 cells, the IC50 is at least 10000 nM.
With `O=C1NCC12CCCN(c1nc(OC[C@@]34CCCN3C[C@H](F)C4)nc3c(F)c(-c4cc(O)cc5ccc(F)c(Br)c45)ncc13)C2` (stereo partly drawn) [Example 406, 6-(7-(8-bromo-7-fluoro-3-hydroxynaphthalen-1-yl)-8-fluoro-2-(((2R,7aS)-2-fluorohexahydro-1H-pyrrolizin-7a-yl)methoxy)pyrido[4,3-d]pyrimidin-4-yl)-2,6-diazaspiro[3.5]nonan-1-one], the IC50 with pERK in PSN1 cells was at least 10 µM; with pERK in MKN1 cells, 306 nM; against KRas G12R it was 11 nM; on KRas G12V, 5 nM; against KRas G12D, 4 nM; in the assay on pERK in H727 cells, 748 nM. Further, in the assay with pERK in ASPC1 cells, the IC50 came out at 880 nM.
For `CCc1c(F)ccc2cc(O)cc(-c3ncc4c(N5CCCOC(C)(C)C5)nc(OC[C@@]56CCCN5C[C@H](F)C6)nc4c3F)c12` [Example 501, 4-(4-(2,2-dimethyl-1,4-oxazepan-4-yl)-8-fluoro-2-(((2R,7aS)-2-fluorohexahydro-1H-pyrrolizin-7a-yl)methoxy)pyrido[4,3-d]pyrimidin-7-yl)-5-ethyl-6-fluoronaphthalen-2-ol], the IC50 is at least 10 µM with pERK in PSN1 cells; 225 nM with pERK in MKN1 cells; 176 nM against KRas G12R; 169 nM against KRas G12V; 606 nM at KRas G12D; 3230 nM in the assay with pERK in H727 cells. For the same molecule, the IC50 in the assay on pERK in ASPC1 cells is 2060 nM.
With `CN(C)CC1(COc2nc(N3CCC[C@@](C)(O)C3)c3cnc(-c4cc(O)cc(Cl)c4C4CC4)c(F)c3n2)CC1` [Example 517, (R)-1-(7-(3-chloro-2-cyclopropyl-5-hydroxyphenyl)-2-((1-((dimethylamino)methyl)cyclopropyl)methoxy)-8-fluoropyrido[4,3-d]pyrimidin-4-yl)-3-methylpiperidin-3-ol], the IC50 is at least 10 µM in the assay on pERK in PSN1 cells; 42 nM in the assay with pERK in MKN1 cells; 6 nM at KRas G12R; 3 nM at KRas G12V; at most 2 nM against KRas G12D; 321 nM in the assay on pERK in H727 cells. Besides, the concentration for half-maximal inhibition (IC50) in the assay with pERK in ASPC1 cells stood at 203 nM.
Turning to `O=C1NCC12CCCN(c1nc(OC[C@@]34CCCN3C[C@H](F)C4)nc3c(F)c(-c4cc(O)cc5ccc(F)c(Cl)c45)ncc13)C2` (stereo partly drawn) [Example 424, 6-(7-(8-chloro-7-fluoro-3-hydroxynaphthalen-1-yl)-8-fluoro-2-(((2R,7aS)-2-fluorohexahydro-1H-pyrrolizin-7a-yl)methoxy)pyrido[4,3-d]pyrimidin-4-yl)-2,6-diazaspiro[3.5]nonan-1-one], the IC50 in the assay with pERK in PSN1 cells was 2.81 µM; in the assay with pERK in MKN1 cells it was 95 nM; at KRas G12R, 8 nM; at KRas G12V, 4 nM; on KRas G12D it was 3 nM; with pERK in H727 cells it was 1300 nM. Further, the IC50 in the assay on pERK in ASPC1 cells came to 817 nM.
For the molecule `CCc1c(F)ccc2cc(O)cc(-c3ncc4c(N5CCOC6(CCS(=N)(=O)CC6)C5)nc(OC[C@@]56CCCN5C[C@H](F)C6)nc4c3F)c12` (stereo partly drawn) [Example 503, 4-(7-(8-ethyl-7-fluoro-3-hydroxynaphthalen-1-yl)-8-fluoro-2-(((2R,7aS)-2-fluorohexahydro-1H-pyrrolizin-7a-yl)methoxy)pyrido[4,3-d]pyrimidin-4-yl)-9-imino-1-oxa-9-thia-4-azaspiro[5.5]undecane 9-oxide], the IC50 was at least 10 µM in the assay with pERK in PSN1 cells; at least 10000 nM in the assay on pERK in MKN1 cells; 124 nM at KRas G12R; 82 nM at KRas G12V; 305 nM on KRas G12D; at least 10000 nM in the assay with pERK in H727 cells. In addition, the IC50 with pERK in ASPC1 cells is at least 10000 nM.
With `CCc1c(F)ccc2cc(O)cc(-c3ncc4c(N5C[C@H](O)CC[C@H](O)C5)nc(OC[C@@]56CCCN5C[C@H](F)C6)nc4c3F)c12` [Example 491, (3R,6S)-1-(7-(8-ethyl-7-fluoro-3-hydroxynaphthalen-1-yl)-8-fluoro-2-(((2R,7aS)-2-fluorohexahydro-1H-pyrrolizin-7a-yl)methoxy)pyrido[4,3-d]pyrimidin-4-yl)azepane-3,6-diol], the IC50 was at least 10 µM with pERK in PSN1 cells; 182 nM in the assay with pERK in MKN1 cells; 6 nM at KRas G12R; 4 nM at KRas G12V; 4 nM at KRas G12D; 1530 nM in the assay on pERK in H727 cells. Moreover, the IC50 with pERK in ASPC1 cells is 1700 nM.
As to `C#Cc1c(F)ccc2cc(O)cc(-c3ncc4c(N5CCCC6(CNS(=O)(=O)N6)C5)nc(OC[C@@]56CCCN5C[C@H](F)C6)nc4c3F)c12` (stereo partly drawn) [Example 396, 7-(7-(8-ethynyl-7-fluoro-3-hydroxynaphthalen-1-yl)-8-fluoro-2-(((2R,7aS)-2-fluorohexahydro-1H-pyrrolizin-7a-yl)methoxy)pyrido[4,3-d]pyrimidin-4-yl)-2-thia-1,3,7-triazaspiro[4.5]decane 2,2-dioxide], the IC50 with pERK in PSN1 cells was at least 10 µM; in the assay on pERK in MKN1 cells, 525 nM; against KRas G12R, 3 nM; at KRas G12V it was 3 nM; at KRas G12D, at most 2 nM; in the assay on pERK in H727 cells, 7480 nM. Further, in the assay with pERK in ASPC1 cells, the IC50 was determined as 3080 nM.
As to `CCc1c(F)ccc2cc(O)cc(-c3ncc4c(NCC5NC(=O)NC5=O)nc(OC[C@@]56CCCN5C[C@H](F)C6)nc4c3F)c12` (stereo partly drawn) [Example 369, 5-(((7-(8-ethyl-7-fluoro-3-hydroxynaphthalen-1-yl)-8-fluoro-2-(((2R,7aS)-2-fluorohexahydro-1H-pyrrolizin-7a-yl)methoxy)pyrido[4,3-d]pyrimidin-4-yl)amino)methyl)imidazolidine-2,4-dione], the IC50 in the assay on pERK in PSN1 cells is at least 10 µM; in the assay with pERK in MKN1 cells, 294 nM; against KRas G12R it was 4 nM; at KRas G12V, 3 nM; against KRas G12D, 5 nM; in the assay with pERK in H727 cells, 471 nM. In addition, the IC50 in the assay on pERK in ASPC1 cells was 1340 nM.
For the molecule `CCc1c(F)ccc2cc(O)cc(-c3ncc4c(NCC5CNC(=O)N5)nc(OC[C@@]56CCCN5C[C@H](F)C6)nc4c3F)c12` (stereo partly drawn) [Example 370, 4-(((7-(8-ethyl-7-fluoro-3-hydroxynaphthalen-1-yl)-8-fluoro-2-(((2R,7aS)-2-fluorohexahydro-1H-pyrrolizin-7a-yl)methoxy)pyrido[4,3-d]pyrimidin-4-yl)amino)methyl)imidazolidin-2-one], the half-maximal inhibitory concentration (IC50) is at least 10 µM in the assay with pERK in PSN1 cells; 330 nM in the assay with pERK in MKN1 cells; 5 nM against KRas G12R; at most 2 nM against KRas G12V; 11 nM against KRas G12D; 516 nM in the assay with pERK in H727 cells. For the same molecule, the 50% inhibitory concentration (IC50) in the assay with pERK in ASPC1 cells worked out at 2980 nM.
Turning to `Nc1cc2n(n1)CCCN(c1nc(OC[C@@]34CCCN3C[C@H](F)C4)nc3c(F)c(-c4cc(O)cc5ccc(F)c(Cl)c45)ncc13)C2` [Example 426, 4-(4-(2-amino-7,8-dihydro-4H-pyrazolo[1,5-a][1,4]diazepin-5(6H)-yl)-8-fluoro-2-(((2R,7aS)-2-fluorohexahydro-1H-pyrrolizin-7a-yl)methoxy)pyrido[4,3-d]pyrimidin-7-yl)-5-chloro-6-fluoronaphthalen-2-ol], the IC50 was at least 10 µM with pERK in PSN1 cells; 264 nM with pERK in MKN1 cells; at most 2 nM against KRas G12R; at most 2 nM on KRas G12V; at most 2 nM against KRas G12D; 1220 nM in the assay with pERK in H727 cells. In addition, the IC50 with pERK in ASPC1 cells was determined as 652 nM.
Regarding `CCc1c(F)ccc2cc(O)cc(-c3ncc4c(N5CCCC(NS(N)(=O)=O)C5)nc(OC[C@@]56CCCN5C[C@H](F)C6)nc4c3F)c12` (stereo partly drawn) [Example 352, 7-(8-ethyl-7-fluoro-3-hydroxy-1-naphthyl)-8-fluoro-2-(((2R,7aS)-2-fluorohexahydro-1H-pyrrolizin-7a-yl)methoxy)-4-[3-(sulfamoylamino)-1-piperidyl]pyrido[4,3-d]pyrimidine], the IC50 was at least 10 µM in the assay on pERK in PSN1 cells; 46 nM in the assay with pERK in MKN1 cells; at most 2 nM against KRas G12R; at most 2 nM against KRas G12V; at most 2 nM on KRas G12D; 1270 nM in the assay on pERK in H727 cells. The IC50 in the assay with pERK in ASPC1 cells worked out at 948 nM.
Turning to `CCc1c(F)ccc2cc(O)cc(-c3ncc4c(N5CCCC6(CC(=O)N6)C5)nc(OCC5(CN(C)C)CC5)nc4c3F)c12` (stereo not shown) [Example 513, 6-(2-((1-((dimethylamino)methyl)cyclopropyl)methoxy)-7-(8-ethyl-7-fluoro-3-hydroxynaphthalen-1-yl)-8-fluoropyrido[4,3-d]pyrimidin-4-yl)-1,6-diazaspiro[3.5]nonan-2-one], the IC50 is at least 10 µM with pERK in PSN1 cells; 221 nM with pERK in MKN1 cells; 3 nM on KRas G12R; at most 2 nM against KRas G12V; at most 2 nM against KRas G12D; 869 nM in the assay on pERK in H727 cells. Also, the IC50 in the assay with pERK in ASPC1 cells is 1310 nM.

One may read the IC50 as the concentration at which inhibition is half-maximal.

Values taken from patent US12398154B2, “Azaquinazoline pan-KRas inhibitors” (Mirati Therapeutics, Inc., priority 2020, dated 2025).
